Measurements as given in US10138230B2, “Autotaxin inhibitors” (CANCER RESEARCH TECHNOLOGY LIMITED, priority 2015, dated 2018).
pIC50: −log10 of the molar value. Where a name gives a salt, the structure may show the parent alone.

Each compound was assayed against human recombinant ATX (Homo sapiens (Human), UniProt Q13822) (assay: Autotaxin (ATX) activity Quanta Red assay). Conditions: 15 μM Rac-1-Palmitoyl-glycero-3-phosphocholine, 2 hours room temperature, determined in duplicate.
Type: biochemical
How it was run: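 Choline released from 15 μM LPC substrate by 0.8 μg/mL recombinant human ATX (pH 8.0 Tris, CaCl2, 4% DMSO, 2 h, RT) was detected by coupled Quanta Red fluorescence.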

Compared with O=C(NC1CC(=O)N(c2ccc(CN3CCOCC3)cc2)C1)c1nnc(CCc2ccc(Cl)cc2)s1 (stereo not shown) [Compound F128, 5-[2-(4-chlorophenyl)ethyl]-N-[1-[4-(morpholino-methyl)phenyl]-5-oxo-pyrrolidine-3-yl]-1,3,4-thiadiazole-2-carboxamide], O=C(NC1CC(=O)N(c2ccc(CN3CCCCCC3)cc2)C1)c1nnc(CCc2ccc(Cl)cc2)s1 (stereo not shown) [Compound F134, N-[1-[4-(azepan-1-ylmethyl)phenyl]-5-oxo-pyrrolidin-3-yl]-5-[2-(4-chlorophenyl)ethyl]-1,3,4-thiadiazole-2-carboxamide] is 0.48 log units lower in pIC50: 9.00 for the first, 8.52 for the second. The first is the more potent here.

Compared with CN1CCN(Cc2ccc(N3CC(C(=O)Nc4nnc(CCc5ccc(Cl)cc5)s4)CC3=O)cc2)CC1 (stereo not shown) [Compound F117, N-[5-[2-(4-chlorophenyl)ethyl]-1,3,4-thiadiazol-2-yl]-1-[4-[(4-methylpiperazin-1-yl)methyl]phenyl]-5-oxo-pyrrolidine-3-carboxamide], CCC(C)CCc1nnc(NC(=O)C2CC(=O)N(c3ccc(CN4CCCCC4)cc3)C2)s1 (stereo not shown) [Compound F182, 5-oxo-1-(4-piperidin-1-ylmethyl-phenyl)-pyrrolidine-3-carboxylic acid [5-(3-methyl-pentyl)-[1,3,4]thiadiazol-2-yl]-amide; hydrochloride] is 0.72 log units lower in pIC50: 8.40 for the first, 7.68 for the second. The first is the more potent here.
